Reference: ChEMBL document CHEMBL4602730, “In Vitro and in Vivo Evaluation of Membrane-Active Flavone Amphiphiles: Semisynthetic Kaempferol-Derived Antimicrobials against Drug-Resistant Gram-Positive Bacteria” (J Med Chem, 2020)
Values after ≈ are worked out from the molar mass of the structure shown. Active and inactive are the calls of the source. No cut-off for these calls is given here.

What was measured:
Staphylococcus aureus [1] = experiment: Antibacterial activity against Staphylococcus aureus ATCC 29213 assessed as inhibition of bacterial growth incubated for 24 hrs by broth microdilution method; type: functional; details: ATCC 29213, 24 h
Staphylococcus aureus [2] = experiment: Antibacterial activity against methicillin-resistant Staphylococcus aureus N315 assessed as inhibition of bacterial growth incubated for 24 hrs by broth microdilution method; type: functional; details: N315, 24 h
Staphylococcus aureus [3] = experiment: Antibacterial activity against methicillin-resistant Staphylococcus aureus NCTC 10442 assessed as inhibition of bacterial growth incubated for 24 hrs by broth microdilution method; type: functional; details: NCTC 10442, 24 h
[4] = Induction of hemolysis in rabbit RBC incubated for 1 hr; type: cell-based, Oryctolagus cuniculus, Erythrocyte; details: rabbit red blood cells (erythrocytes)
Escherichia coli = experiment: Antibacterial activity against Escherichia coli assessed as inhibition of bacterial growth incubated for 24 hrs by broth microdilution method; type: functional
Pseudomonas aeruginosa = experiment: Antibacterial activity against Pseudomonas aeruginosa assessed as inhibition of bacterial growth incubated for 24 hrs by broth microdilution method; type: functional
Staphylococcus aureus [5] = experiment: Antibacterial activity against Staphylococcus aureus ATCC 29213 assessed as induction of bacterial killing at 4 times MIC incubated for 1 hrs followed by re-plating of cultures and measured after 24 hrs by time kill study relative to control; type: functional
Staphylococcus aureus [6] = experiment: Antibacterial activity against Staphylococcus aureus ATCC 29213 assessed as induction of bacterial killing at 8 times MIC incubated for 0.5 hrs followed by re-plating of cultures and measured after 24 hrs by time kill study relative to control; type: functional
Staphylococcus aureus [7] = experiment: Antibacterial activity against Staphylococcus aureus ATCC 29213 assessed as bacterial cell killing at 4 times MIC incubated for 1 hrs followed by re-plating of cultures and measured after 24 hrs by time kill study relative to control; type: functional
Staphylococcus aureus [8] = experiment: Antibacterial activity against Staphylococcus aureus ATCC 29213 assessed as suppression of bacterial re-growth at 4 to 8 times MIC incubated for 0.5 to 24 hrs followed by re-plating of cultures and measured after 24 hrs by time kill study relative to control; type: functional, organism-based
Staphylococcus aureus [9] = experiment: Induction of cytoplasmic membrane permeabilization in Staphylococcus aureus ATCC 29213 at 1 to 8 times MIC by SYTOX green dye based fluorescence assay; type: functional, organism-based
Staphylococcus aureus [10] = experiment: Induction of cytoplasmic membrane permeabilization in methicillin-resistant Staphylococcus aureus NCTC 10442 at 1 to 8 times MIC by SYTOX green dye based fluorescence assay; type: functional, organism-based
Staphylococcus aureus [11] = experiment: Induction of cell surface disruption in Staphylococcus aureus ATCC 29213 at 8 times MIC incubated for 2 hrs by scanning electron microscopy; type: functional, organism-based
Staphylococcus aureus [12] = experiment: Induction of bacterial cell membrane integrity loss in Staphylococcus aureus ATCC 29213 incubated for 2 hrs propidium iodide and SYTO9 dye based LIVE/DEAD bacterial viability assay; type: functional, organism-based
Staphylococcus aureus [13] = experiment: Resistance index, ratio of MIC for antibacterial activity against Staphylococcus aureus ATCC 29213 passed over 19 cycles in presence of compound for period of 19 consecutive days by broth microdilution method to MIC for antibacterial activity against Staphylococcus aureus ATCC 29213; type: functional
[14] = Cytotoxicity in human MDA-MB-231 cells assessed as reduction in cell viability incubated for 24 hrs by CCK8 assay; type: cell-based
[15] = Cytotoxicity in human MDA-MB-231 cells assessed as cell viability at 32 times MIC incubated for 24 hrs by CCK8 assay relative to control; type: cell-based; details: read-out: Activity
[16] = Cytotoxicity in mouse corneal epithelial cells assessed as cell viability at 32 times MIC incubated for 24 hrs by CCK8 assay relative to control; type: cell-based; details: read-out: Activity
Staphylococcus aureus [17] = experiment: Antibacterial activity against Staphylococcus aureus ATCC 29213 infected in C57BL6 mouse assessed as reduction in bacterial count at 0.5% treated topically 4 times per day for 3 days starting from 1 day after infection relative to control; type: functional

SMILES	MIC (Staphylococcus aureus [1]) [µM]	MIC (Staphylococcus aureus [2]) [µM]	MIC (Staphylococcus aureus [3]) [µM]	HC50 at 1 h [4] [µM]	other results
CCCN(CCC)CCCOc1c(-c2ccc(OCC=C(C)C)cc2)oc2cc(OCC=C(C)C)cc(O)c2c1=O	> 88.7	> 88.7	> 88.7	> 355	
CC(C)=CCOc1ccc(-c2oc3cc(OCC=C(C)C)cc(O)c3c(=O)c2OCCCN2CCOCC2)cc1	> 91	> 91	> 91	> 364	
CCN(CC)CCCOc1c(-c2ccc(OCC=C(C)C)cc2)oc2cc(OCC=C(C)C)cc(O)c2c1=O	5.8 (≈ 3.11 µg/mL)	5.8 (≈ 3.11 µg/mL)	5.8 (≈ 3.11 µg/mL)	59.9	
CCN(CC)CCOc1c(-c2ccc(OCC=C(C)C)cc2)oc2cc(OCC=C(C)C)cc(O)c2c1=O	95.8 (≈ 50 µg/mL)	95.8 (≈ 50 µg/mL)	95.8 (≈ 50 µg/mL)	> 383	
CCCC[N+](C)(CCCC)CCCOc1c(-c2ccc(OCC=C(C)C)cc2)oc2cc(OCC=C(C)C)cc(O)c2c1=O	17.1	17.1	34.1	46.9	
CCCCCOc1ccc(-c2oc3cc(OCCCCC)cc(O)c3c(=O)c2OCCCN(CC)CC)cc1	11.6 (≈ 6.26 µg/mL)	11.6 (≈ 6.26 µg/mL)	23.2 (≈ 12.5 µg/mL)	284	
CC(C)=CCOc1ccc(-c2oc3cc(OCC=C(C)C)cc(O)c3c(=O)c2OCC(=O)N[C@@H](CCCNC(=N)N)C(=O)NCCCN(C)C)cc1	8.7 (≈ 6.27 µg/mL)	8.7 (≈ 6.27 µg/mL)	8.7 (≈ 6.27 µg/mL)	131	
CCN(CC)CCCCCCCCOc1c(-c2ccc(OCC=C(C)C)cc2)oc2cc(OCC=C(C)C)cc(O)c2c1=O	82.5 (≈ 50 µg/mL)	20.6 (≈ 12.5 µg/mL)	82.5 (≈ 50 µg/mL)	29.4	
COC(=O)[C@H](CCCNC(=N)N)NC(=O)[C@H](CCCNC(=N)N)NC(=O)COc1c(-c2ccc(OCC=C(C)C)cc2)oc2cc(OCC=C(C)C)cc(O)c2c1=O	3.9 (≈ 3.15 µg/mL)	3.9 (≈ 3.15 µg/mL)	3.9 (≈ 3.15 µg/mL)	82.5	
CCCCCNCCCOc1c(-c2ccc(OCC=C(C)C)cc2)oc2cc(OCC=C(C)C)cc(O)c2c1=O	45.5 (≈ 25 µg/mL)	11.4 (≈ 6.27 µg/mL)	22.7 (≈ 12.5 µg/mL)	69.7	
CCN(CC)CCCCCCOc1c(-c2ccc(OCC=C(C)C)cc2)oc2cc(OCC=C(C)C)cc(O)c2c1=O	10.8 (≈ 6.24 µg/mL)	10.8 (≈ 6.24 µg/mL)	10.8 (≈ 6.24 µg/mL)	83.8	
CC(C)=CCOc1ccc(-c2oc3cc(OCC=C(C)C)cc(O)c3c(=O)c2OCC(=O)NCCCN(C)C)cc1	11.1 (≈ 6.27 µg/mL)	11.1 (≈ 6.27 µg/mL)	22.1 (≈ 12.5 µg/mL)	287	
CC(C)=CCOc1ccc(-c2oc3cc(OCC=C(C)C)cc(O)c3c(=O)c2OCCCN2CCCC2)cc1	23.4 (≈ 12.5 µg/mL)	11.7 (≈ 6.24 µg/mL)	23.4 (≈ 12.5 µg/mL)	> 375	
CCCNCCCOc1c(-c2ccc(OCC=C(C)C)cc2)oc2cc(OCC=C(C)C)cc(O)c2c1=O	24 (≈ 12.5 µg/mL)	6 (≈ 3.13 µg/mL)	12 (≈ 6.26 µg/mL)	49.8	
CC(C)=CCOc1ccc(-c2oc3cc(OCC=C(C)C)cc(O)c3c(=O)c2OCCCN(C)C)cc1	12.3 (≈ 6.24 µg/mL)	12.3 (≈ 6.24 µg/mL)	12.3 (≈ 6.24 µg/mL)	228	
CCN(CC)CCCCOc1c(-c2ccc(OCC=C(C)C)cc2)oc2cc(OCC=C(C)C)cc(O)c2c1=O	5.7 (≈ 3.13 µg/mL)	5.7 (≈ 3.13 µg/mL)	5.7 (≈ 3.13 µg/mL)	32.2	
CC(C)=CCOc1ccc(-c2oc3cc(OCC=C(C)C)cc(O)c3c(=O)c2OCCCN2CCN(C)CC2)cc1	22.2 (≈ 12.5 µg/mL)	11.1 (≈ 6.25 µg/mL)	22.2 (≈ 12.5 µg/mL)	83.3	
COC(=O)[C@H](CCCNC(=N)N)NC(=O)COc1c(-c2ccc(OCC=C(C)C)cc2)oc2cc(OCC=C(C)C)cc(OCC(=O)N[C@@H](CCCNC(=N)N)C(=O)OC)c2c1=O	1.8 (≈ 1.58 µg/mL)	1.8 (≈ 1.58 µg/mL)	1.8 (≈ 1.58 µg/mL)	> 228	MIC (Escherichia coli): 12.5 to 25 µg/mL (≈ 14.2 to 28.4 µM); MIC (Pseudomonas aeruginosa): 12.5 to 25 µg/mL (≈ 14.2 to 28.4 µM); LCK (Staphylococcus aureus [5]): 3.21; LCK (Staphylococcus aureus [6]): 3.22; Activity (Staphylococcus aureus [7]): >=99.9%; Activity (Staphylococcus aureus [8]): Active; Activity (Staphylococcus aureus [9]): Active; Activity (Staphylococcus aureus [10]): Active; Activity (Staphylococcus aureus [11]): Active; Activity (Staphylococcus aureus [12]): Active; Ratio (Staphylococcus aureus [13]): <=4; CC50 at 24 h [14]: > 50 µg/mL; viability at 24 h, 32 times MIC [15]: 75%; viability at 24 h, 32 times MIC [16]: 70.1%; Activity (Staphylococcus aureus [17]): 3.28 log10CFU
CCCCCCCCCOc1ccc(-c2oc3cc(OCCCCCCCCC)cc(O)c3c(=O)c2O)cc1	> 92.8	> 92.8	> 92.8	> 371	
